According to ChEMBL document CHEMBL1201862, “PubChem BioAssay data set” (2004):
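All cell lines were grown in 96-well plates and treated with compound for 48 hours. The concentration for 50% growth inhibition is given as GI50.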 Active and inactive are the calls of the source. Rule as the data show it: active = GI50 up to about 1.1 µM and inactive = higher.

Experiments:
Test in all cases: inhibition of tumour cell growth, NCI panel, 48 h
HT-29 = system: HT-29
U-251 = system: U-251
SNB-75 = system: SNB-75
SK-MEL-2 = system: SK-MEL-2
T47D = system: T47D
NCI-H23 = system: NCI-H23
IGROV-1 = system: IGROV-1
BT-549 = system: BT-549
A549 = system: A549
SW-620 = system: SW-620
M14 = system: M14
COLO 205 = system: COLO 205
K562 = system: K562
HCT-15 = system: HCT-15
UACC-257 = system: UACC-257
MDA-N = system: MDA-N
HCT-116 = system: HCT-116
UO-31 = system: UO-31
HOP-62 = system: HOP-62
OVCAR-5 = system: OVCAR-5
MDA-MB-231 = system: MDA-MB-231
SK-MEL-28 = system: SK-MEL-28
Malme-3M = system: Malme-3M
SN12C = system: SN12C
Hs-578T = system: Hs-578T
EKVX = system: EKVX
MOLT-4 = system: MOLT-4
NCI-H522 = system: NCI-H522
RPMI-8226 = system: RPMI-8226
OVCAR-8 = system: OVCAR-8
ACHN = system: ACHN
SF-268 = system: SF-268
SK-OV-3 = system: SK-OV-3
PC-3 = system: PC-3
LOX IMVI = system: LOX IMVI
MDA-MB-435 = system: MDA-MB-435
SNB-19 = system: SNB-19
OVCAR-4 = system: OVCAR-4
NCI-H460 = system: NCI-H460
786-0 = system: 786-0
NCI-H226 = system: NCI-H226
SF-295 = system: SF-295
RXF 393 = system: RXF 393
DU-145 = system: DU-145
UACC-62 = system: UACC-62
NCI/ADR-RES = system: NCI/ADR-RES
MCF7 = system: MCF7
SR = system: SR
TK-10 = system: TK-10
SK-MEL-5 = system: SK-MEL-5
OVCAR-3 = system: OVCAR-3
HCC 2998 = system: HCC 2998
HOP-92 = system: HOP-92
HL-60 = system: HL-60
CCRF-CEM = system: CCRF-CEM
CAKI-1 = system: CAKI-1
SF-539 = system: SF-539
KM12 = system: KM12

Measured: GI50

COc1ccc(C(OCC2OC(n3ccc(NC(=O)c4ccccc4)nc3=O)CC2OP2(=S)SCCS2)(c2ccccc2)c2ccc(OC)cc2)cc1 (stereo not given)
33.5 µM: HCT-15
inactive: HT-29 24.7 µM | U-251 28 µM | SNB-75 24.5 µM | SK-MEL-2 43.6 µM | T47D 36.3 µM | NCI-H23 43.2 µM | IGROV-1 33.5 µM | BT-549 25.9 µM | A549 56.2 µM | SW-620 18.4 µM | M14 24.9 µM | COLO 205 > 10 µM | K562 > 100 µM | UACC-257 30.1 µM | MDA-N > 10 µM | HCT-116 32.9 µM | UO-31 > 100 µM | HOP-62 20.7 µM | OVCAR-5 36.8 µM | MDA-MB-231 31.1 µM | SK-MEL-28 30 µM | Malme-3M 25.4 µM | SN12C 21.1 µM | Hs-578T 24.1 µM | EKVX 34.5 µM | MOLT-4 37.5 µM | NCI-H522 22.1 µM | RPMI-8226 > 100 µM | OVCAR-8 27.2 µM | ACHN 18.6 µM | SF-268 21.2 µM | SK-OV-3 25.2 µM | PC-3 17.8 µM | LOX IMVI 14.9 µM | MDA-MB-435 30.1 µM | SNB-19 29.6 µM | OVCAR-4 30.1 µM | NCI-H460 33.6 µM | 786-0 24.4 µM | NCI-H226 34.4 µM | SF-295 30.7 µM | RXF 393 33.2 µM | DU-145 32.9 µM | UACC-62 16.7 µM | NCI/ADR-RES > 10 µM | MCF7 37.1 µM | SR 48.1 µM | TK-10 > 100 µM | SK-MEL-5 22.4 µM | OVCAR-3 22.6 µM

O=c1[nH]c2nc3ccccc3c(=O)n2/c1=C/c1ccco1
inactive: HT-29 > 100 µM | U-251 > 100 µM | SNB-75 > 100 µM | SK-MEL-2 > 100 µM | T47D 23.4 µM | HCC 2998 > 100 µM | NCI-H23 > 100 µM | IGROV-1 > 100 µM | BT-549 > 100 µM | A549 > 100 µM | SW-620 > 100 µM | M14 > 100 µM | COLO 205 > 100 µM | HOP-92 > 100 µM | HL-60 > 100 µM | K562 > 100 µM | UACC-257 > 100 µM | CCRF-CEM > 100 µM | MDA-N > 100 µM | HCT-116 > 100 µM | UO-31 > 100 µM | HOP-62 > 100 µM | OVCAR-5 > 100 µM | MDA-MB-231 > 100 µM | SK-MEL-28 > 100 µM | Malme-3M > 100 µM | SN12C > 100 µM | Hs-578T > 100 µM | EKVX > 100 µM | MOLT-4 > 100 µM | NCI-H522 > 100 µM | RPMI-8226 > 100 µM | OVCAR-8 > 100 µM | CAKI-1 > 100 µM | ACHN > 100 µM | SF-268 > 100 µM | SK-OV-3 > 100 µM | PC-3 > 100 µM | LOX IMVI > 100 µM | MDA-MB-435 > 100 µM | SNB-19 > 100 µM | OVCAR-4 > 100 µM | 786-0 > 100 µM | NCI-H226 > 100 µM | SF-295 > 100 µM | SF-539 > 100 µM | DU-145 > 100 µM | UACC-62 > 100 µM | KM12 > 100 µM | NCI/ADR-RES > 100 µM | MCF7 4.2 µM | SR > 100 µM | TK-10 > 100 µM | SK-MEL-5 > 100 µM | OVCAR-3 > 100 µM
> 100 µM: HCT-15

O=C1/C(=C/c2ccc(OC(=O)c3ccccc3)cc2)CCC/C1=C\c1ccc(OC(=O)c2ccccc2)cc1
> 100 µM: HCT-15
inactive: HT-29 > 100 µM | U-251 > 100 µM | SNB-75 93.3 µM | SK-MEL-2 > 100 µM | T47D > 100 µM | HCC 2998 > 100 µM | NCI-H23 > 100 µM | IGROV-1 > 100 µM | BT-549 > 100 µM | A549 > 100 µM | SW-620 > 100 µM | M14 > 100 µM | COLO 205 > 100 µM | HOP-92 > 100 µM | HL-60 > 100 µM | UACC-257 > 100 µM | CCRF-CEM > 100 µM | MDA-N > 100 µM | HCT-116 > 100 µM | UO-31 > 100 µM | HOP-62 > 100 µM | OVCAR-5 > 100 µM | MDA-MB-231 > 100 µM | SK-MEL-28 > 100 µM | SN12C > 100 µM | Hs-578T > 100 µM | EKVX > 100 µM | MOLT-4 > 100 µM | NCI-H522 > 100 µM | RPMI-8226 > 100 µM | OVCAR-8 > 100 µM | CAKI-1 > 100 µM | ACHN > 100 µM | SF-268 > 100 µM | PC-3 > 100 µM | LOX IMVI > 100 µM | MDA-MB-435 > 100 µM | SNB-19 > 100 µM | OVCAR-4 > 100 µM | NCI-H460 > 100 µM | 786-0 > 100 µM | SF-295 > 100 µM | SF-539 > 100 µM | DU-145 > 100 µM | UACC-62 > 100 µM | KM12 > 100 µM | NCI/ADR-RES > 100 µM | MCF7 > 100 µM | SR > 100 µM | TK-10 > 100 µM | SK-MEL-5 > 100 µM | OVCAR-3 > 100 µM
